The values below come from US10731222B2 (RNA Diagnostics Inc., priority 2013, dated 2020).

For series [1], the system named is Colon adenocarcinoma cells LS174T. Briefly: RNA disruption in colon adenocarcinoma cells LS174T. It counts as cell-based. Particulars: 24 hr. How it is done:
Colon adenocarcinoma cells LS174T were incubated with Sunitinib, a receptor tyrosine kinase inhibitor. RNA was isolated from the cells and analyzed using an Agilent Bioanalyzer.
RNA was isolated from the cells and analyzed using an Agilent Bioanalyzer.

Series [2] deals with breast cancer T2-4, N 0-1, M0. Briefly: Early response studies: RNA Disruption (RDI) 15 days after initiation of therapy. Type of series: in vivo, human. The text has this:
The Limit of Detection for RDI s RDI=0.3. RDI=1.5, 5 times the Level of Detection, was used as a provisional baseline cut off between nonresponders and responders.

In series [3] the test system is locally advanced breast cancer. Briefly: ATP content of tumour biopsies (ATPlite luminescence), Group 1. The settings on record: tru-cut after ZA; 230.93 at incisional biopsy; 24 matched pairs; p=0.79. It counts as in vivo, human. The protocol:
ATP content was assayed as previously described using a luminescence assay system (ATPlite, PerkinElmer) according to manufacturing instructions. Briefly, frozen tumor biopsies were minced and homogenized in ice-cold lysis solution provided with the kit using a homogenizer. Membranes and cellular debris were eliminated by centrifuging at 12,000×g for 10 min at 4° C. Protein concentrations were determined by DC protein-assay (Bio-Rad Laboratories). Equal amounts of tissue proteins from each sample (30 μg/50 μl of lysis solution) were incubated with 50 μl of luciferine/luciferase substrate solution and analyzed for ATP content by using a Luminescence Counter (Enspire, PerkinElemer). ATP concentrations were calculated on the basis of an ATP standard-curve and expressed as pmol/mg protein.

Series [4] deals with locally advanced breast cancer. Briefly: Immunohistochemistry of tumour markers (Ki67, CD31, p53, bcl-2, caspase 3) before and 14 days after single-dose ZA, Group 1. It counts as in vivo, human. How it is done: Enrolled patients received 4 mg single dose of ZA (Zometa®, Novartis, Milan, Italy) before starting any treatment (biological window of 14 days) (FIG. 9). Markers of tumor proliferation/death were tested immunohistochemically and at ATP and RNA level in tumour specimens obtained before and after ZA administration in those patients with locally advanced breast cancer (Group 1) and the count of circulating tumour cells (CTCs) by CellSearch System along with serological markers as marker of tumor dissemination were carried out in metastatic patients (Group 2).
(§1) In patients with locally advanced disease, the biological evaluations were performed at baseline on the diagnostic biopsy and repeated after 14 days from ZA administration on a second tru-cut biopsy (Group 1) whereas in patients with bone metastatic disease, CTCs counts along with serological markers were performed before ZA administration, at 48 hours and at 14 days after treatment (Group 2) (FIG. 9).
Immunohistochemical evaluation was performed on formalin-fixed paraffin-embedded tumor samples obtained at diagnosis and at 14th days on tru-cut. ER, PgR, overexpression of HER2 and Ki67, CD31 with p53 and bcl-2 staining were performed at the Pathology Unit of the Azienda Ospedaliera-Istituti Ospitalieri of Cremona (Italy). The immunohistochemical methodology is fully described elsewhere. The Caspase 3 immunohistochemistry was performed at the Pathology Unit of Peter MacCallum Cancer Centre (Australia); the used methodology followed that reported by others evaluating protein expression in breast tumours.

The nature of series [5]: Treatment tolerability of single-dose ZA. Type of series: in vivo, human. How it is done:
as §1, with “Patients received a single dose of 4 mg diluted in 100 ml saline, intravenously, in about 15 mins of ZA without any other active concomitant treatments (i.e chemotherapy or endocrine therapy) (Groups 1 and 2). In” for “In”
Patients were evaluated by physical examination, and blood samples were obtained for laboratory analysis.

The conditions of series [6]: cited from earlier work.
Series [7] has as its system cytokeratin 18 (M30, M65). Briefly: M30/M65 Apoptosense assay, Group 2. Type of series: in vivo, human. Particulars: 14 days after ZA; baseline 335.3 U/L; p=0.039. How it is done:
Blood samples were collected from patients at the same time-point as indicated for Group 2 into the K2EDTA anticoagulant tubes, and then centrifuged at 1,500 g for 10 min to obtain plasma. Levels of M30 and M65 were measured in blood samples drawn at 8 am before starting ZA administration and thereafter at 48 hours and at 14 days after the initial treatment (FIG. 9).
M30 and M65 measurements were tested in triplicate accordingly to the manufacturers' instructions (PEVIVA AB, Bromma, Sweden) as previously described in detail.
The M30 is a biomarker assay for the quantitative determination of caspase-cleaved cytokeratin 18 (CK18) released from apoptotic carcinoma cells into blood and may estimate the tumour response to the treatment. Total CK18 (cleaved and non cleaved) is detected by M65. The levels of M30 and M65 were determined on blood samples of metastatic breast cancer patients (Group 2) collected at baseline, at 48 hours and at 14 days after ZA administration at the same time point of CTCs evaluation to assess apoptosis and cell death induced by the treatment. […] M65 levels were statistically significant higher after drug administration (14 days) when compared to the baseline (370.69 U/L versus 335.3 U/L; range 174.2-1646.5 versus 113.7-596.4; p=0.039).

Series [8] concerns circulating tumour cells (CTCs). Briefly: Circulating tumor cells (CTCs) assay, CellSearch, Group 2. Particulars: for median CTC/M30+ve: basal 2. Type of series: in vivo, human. The protocol:
as §1, with “Patients received a single dose of 4 mg diluted in 100 ml saline, intravenously, in about 15 mins of ZA without any other active concomitant treatments (i.e chemotherapy or endocrine therapy) (Groups 1 and 2). In” for “In”
The enumeration of CTC in whole blood was done by the CellSearch System according to manufacturers instruction as described by Cristofanilli et al.. The identification and count of CTCs was performed using the CellSearch Analyzer, a semi-automated fluorescence-based microscopy system that permits computer-generated reconstruction of cellular images. The criteria used are round or oval morphology, a DAPI positivity, positivity for cytokeratin and negative staining for CD45. Results are expressed as number of cells/7.5 ml of blood. Quality control was maintained via the CellSearch CTC Control Kit used to standardize reagents, instruments, and operator technique.
To quantify the fraction of apoptotic CTC, M30-positive CTC were detected integrating CTC assay with a specific mAb (M30 PEVIVA AB, Bromma, Sweden), recognizing the M30 neoepitope of cytokeratin 18 (CK18), analyzed with the fourth filter of the CellSearch System; results were expressed as the total number of CTC and M30-positive CTC per 7.5 mL of blood as described elsewhere.

The test system of series [9] is locally advanced breast cancer. Briefly: RNA Disruption Index (RDI) of tumour samples before and 14 days after ZA, Group 1. Particulars: 14 days after single ZA; baseline 0.63; 14 matched pairs; p<0.0076. Type of series: in vivo, human. How it is done:
Tumour samples were shipped in a RNA preservative to Rna Diagnostics (Sudbury, Canada) where they were sub-sectioned to reduce the amount of tissue for RNA isolation based on gross pathology. RNA was then isolated using the Qiagen miRNeasy kit from each portion of the tumour and the RNA analysed using an Agilent Bioanalyzer 2100. […] Mean RDI values were calculated for each tumour sample.

For series [10], the system named is A2780 ovarian cancer cells. Briefly: RNA disruption in drug-treated A2780 cells (Agilent Bioanalyzer electropherogram, RDI). It counts as cell-based, human. Particulars: for response of cells in culture to the agent: dose- and time-dependent; for effect of caspase inhibitor on docetaxel-induced RNA disruption: 10 uM inhibitor with 0.2 uM docetaxel. The protocol: RNA was isolated from ovarian cancer cell line A2780 cells which had been treated with 10 μM docetaxel in 50% media or 20 μM epirubicin, each in 50% media. Cells were treated with the chemotherapeutic for 24 hours at 37° C. Isolated RNA was separated by microcapillary electrophoresis using the Agilent 2100 Bioanalyzer.
Cells were plated and treated with docetaxel concentrations ranging from 0.001-40 μM for 24 to 72 hours to assess the effect on cell number, RNA content, and integrity (measured using a Bioanalyzer 2100 from Agilent Technologies, Inc.).
A2780 cells treated for up to 72 hours with docetaxel at 0.005 uM and 0.2 uM, were analyzed for the amount of RNA per cell. RNA was isolated and electophoretically separated using an Agilent Bioanalyzer.
RNA was isolated and electrophoretically separated on an Agilent Bioanalyzer. As shown in FIG. 24D bands appeared just below the 28S (e.g. intermediate) and 18S bands (e.g. low banding region) at 0.005 uM and peaked at 0.2 uM.
A time course experiment was conducted in A2780 cells. Cells were treated for up to 72 hours with docetaxel at 0.005 uM and 0.2 uM. RNA was isolated and run on an Agilent Bioanalyzer.
The effect of a caspase inhibitor on RNA integrity changes was next assessed. Cells were treated with or without docetaxel at a concentration of 0.2 uM in the presence or absence of the caspase inhibitor Q-DEVD-OPH (Biovision Laboratories) at a concentration of 10 uM.

For series [11], the system named is Colon adenocarcinoma cells SW480. Briefly: RNA disruption in colon adenocarcinoma cells SW480. Type of series: cell-based. Particulars: 72 hr. The protocol: Colon adenocarcinoma cells SW480 were incubated with Epirubicin, a DNA synthesis inhibitor. RNA was isolated from the cells and analyzed using an Agilent Bioanalyzer.
In series [12] the test system is docetaxel-resistant A2780DXL cells. Briefly: Clonogenic assay, docetaxel-resistant cells. Type of series: cell-based. The settings on record: clonogenic assay. The text has this:
(§2) A docetaxel A2780 resistant cell line was made as described in Li et al., Int. J. Mol. Med 2004 14(20): 257-264.
RDA like clonogenic assays can be used to identify drugs that are cytotoxic (FIG. 24C iv). […] The cell lines have widely differing sensitivity to docetaxel in a clonogenic assay, with IC50 values differing by over three orders of magnitude.

The test system is the same in series [13]. Briefly: RNA disruption in docetaxel-resistant cells. The settings on record: in combination with docetaxel. Type of series: cell-based. The protocol: as §2
A time course experiment was conducted. Sensitive parental and docetaxel resistant A2780 cells were treated with docetaxel for 24 hours. RNA was isolated and run on an Agilent Bioanalyzer.
The a\Ability of RDA to detect potentiators of docetaxel (Dxl) sensitivity. […] Thus, RDA may be used to screen for potentiators of chemotherapy drug cytotoxicity.

Where only a bound is given, the exact number is not on record here.

In the case of `CCN(CC)CCNC(=O)c1c(C)[nH]c(/C=C2\C(=O)Nc3ccc(F)cc32)c1C` [Sunitinib], the “concentration at which RNA Disruption is evident” value in series [1] is reported as 54 mM.
In the case of `O=P(O)(O)C(O)(Cn1ccnc1)P(=O)(O)O` [ZA, zoledronic acid], in series [2], the “Patients Responding (RDI above Baseline RDI = 1.5)” value was determined as 8 patients and the “RDI Range, Responding Patients” value is 1.8-8.9. The “average ATP value” in [3] is reported as 216.57 pmol/mg protein. For the same compound, in series [4] (1 of 31), the “specimens with increased bcl-2” value is 3.2% and the “specimens with increased p53” value is 3.2%. For the same compound, the “specimens with decreased p53” value in series [4] (3 of 31) turned out to be 9.7%. The “patients with stable Ki67 expression” value in series [4] (5 of 33 patients, 14 days) turned out to be 15.2%. In addition, the “patients with increase in Ki67 expression” value in [4] (6 of 33 patients, 14 days) came to 18.2%. For the same compound, the “patients with decrease in Ki67 expression” value in [4] (22 of 33 patients, 14 days) was determined as 66.6%. The “specimens with unchanged p53” value in series [4] (27 of 31) is recorded as 87.1%. In addition, the “specimens with decreased bcl-2” value in [4] (30 of 31) amounted to 96.8%. In series [4] (14 days after ZA infusion, basal 18%, n=33, p=0.0032), the “median Ki67” value turned out to be 16%. In addition, the “bcl-2 expression (median)” value in series [4] (14 days, baseline 100%, p<0.00001) was found to be 40%. Also, the “median CD31 expression” value in [4] (after treatment (14 days), basal 27%, p=0.0001) was determined as 16%. In series [5] (in vivo), the “levels of bone-turnover markers (calcium, PTH, BALP, VIT-D3(1-25))” value is “did not lead significant difference” and the “osteonecrosis of the jaw or other significant adverse events” value is “No patient developed”. Also, the tolerability result in series [5] (single 4 mg i.v. dose) is listed as “well tolerated”. The “mean serum creatinine level” value in [5] (with treatment) is listed as “did not vary”. Also, the “plasma concentration relative to Cmax” value in series [6] (24 h post-dose) is listed as < 1 % of Cmax. Besides, the “dose retained in the skeleton or in fat tissue” value in series [6] (in vivo) is given as 60%. Also, the “dose excreted unmetabolized in the urine” value in series [6] (within 24 hours after administration) was “up to 41%”. Besides, the M65 level in [7] is 370.69 U/L. Further, the “median alive CTC” value in series [8] (48 hours after ZA infusion, basal 12, p=0.0012) is listed as 4 cells/7.5 ml of blood. Further, the “median CTC/M30+ve” value in [8] (48 hours, p=0.7065) is given as 2 cells/7.5 ml of blood. Moreover, the “median CTC/M30+ve” value in series [8] (14 days, p=0.018) is 3 cells/7.5 ml of blood. The compound also registered an RDI level in series [9] of 1.21.
For `N.N.O=C([O-])C1(C(=O)[O-])CCC1.[Pt+2]` [carboplatin], the “response of cells in culture to the agent” value (“response of cells in culture” for short) in [10] is listed as “RNA disruption”.
As to `COc1cccc2c1C(=O)c1c(O)c3c(c(O)c1C2=O)C[C@@](O)(C(=O)CO)C[C@@H]3O[C@H]1C[C@H](N)[C@@H](O)[C@H](C)O1` [epirubicin], the “concentration at which RNA Disruption is evident” value in series [11] is 0.5 mM. Besides, the electropherogram pattern entry in series [10] (20 μM in 50% media, 24 hours, 37° C.) was “intermediate bands between the 18S and 28S peaks”. For the same compound, in [10], the “response of cells in culture” value is “RNA disruption”.
Turning to `CC(=O)O[C@H]1C(=O)[C@@]2(C)[C@H]([C@H](OC(=O)c3ccccc3)[C@]3(O)C[C@H](OC(=O)[C@H](O)[C@@H](NC(=O)c4ccccc4)c4ccccc4)C(C)=C1C3(C)C)[C@]1(OC(C)=O)CO[C@@H]1C[C@@H]2O` [paclitaxel], the “response of cells in culture” value in [10] is given as “RNA disruption”.
For Cyclosporine A, the “effect on docetaxel sensitivity” value in series [12] is on record as “restores sensitivity to docetaxel”. For the same compound, the “effect on docetaxel-induced RNA disruption (RDI)” value in [13] was “restored docetaxel's ability to induce RNA disruption”.
As for Q-DEVD-OPH, the “effect of caspase inhibitor on docetaxel-induced RNA disruption” value in series [10] was “reduces the loss of 28S and 18S bands at 72 hr”; in series [10] (listed as Q-DEVD-Oph) it was “significantly reduced RNA disruption”.
